For one data set, the target named is T1, Mnk1 (Homo sapiens, UniProt Q9BUB5).
T1 construct: incubated with recombinant full length Mnk1 proteins or cell lysates overnight at 4 °C; GST
The data set is described as follows: Surface plasmon resonance (OpenSPR) binding to immobilized GST-Mnk1. The settings on record: SPR, 1.25, 10 and 30 µM, 1:1 Langmuir model, 30 °C, scouting analysis; read-out: dissociation constant (KD). The procedure:
Purified recombinant Mnk1 protein with GST tag (2.5 µg/mL) was fixed on GST sensor chip (Nicoya) by capture-coupling, then VNLG-152R (1.25, 10 and 30 µM) were injected (flow rate of 20 µL/min) sequentially into the chamber in running buffer (PBS-T with 10% DMSO). The interaction of Mnk1 with VNLG-152R was detected by Open SPRTM (Nicoya Lifesciences, Kitchener, ON, Canada) at 30 °C. The chip was regenerated with regeneration solution (10 mM glycine-HCL) at a flow rate of 150 µL/min. The close curve fitting to the sensograms were calculated by global fitting curves (1:1 Langmuir binding model). The data was retrieved and analyzed with TraceDraw software (Kitchener, ON, Canada).

The subject of data set [1] is MDA-MB-231 cells. The data set is described as follows: Head-to-head MTT antiproliferative assay, 6-day exposure. Format: cell-based, human. Here is the method: (§1) Figure 2 VNLG-152R inhibits mTORC1 signaling and the production of pro-inflammatory cytokines. (A) MDA-MB-231 and MDA-MB-468 cells were treated with the indicated concentrations of VNLG-152R for 72 h. Cell lysates were analyzed by immunoblotting with the indicated antibodies. (B) Head-to-head antiproliferative effects of VNLG-152R and eFT508 on MDA-MB-231 and MDA-MB-468 cells. The dose-response curves were generated from MTT assays after 6-day exposure to different concentrations of the compounds. Each point is a mean of replicates from three independent experiments. (C–E) MDA-MB-231 cell were treated with the indicated concentration of VNLG-152R or eFT508 for 72 h. Cell supernatants were collected, and the indicated cytokines were quantitated by Multiplex Luminex assay.
(§2) Cell growth inhibition assay was performed as described previously. For cell growth experiment, cells were treated with the VNLG-152R, VNLG-152E1 or VNLG-15E2 for 7 days. MTT assay was performed at the end of the experiment. Results represent the mean ± standard deviation of three independent experiments.

In another data set the test system is MDA-MB-468 cells. Described as above. Format: cell-based, human. Here is the method: as §1, §2
A further data set has as its system HCC-1806 (BL2). The data set is described as follows: MTT cell growth assay, 7 days. Format: cell-based. The settings on record: Homo sapiens, HCC1806, 168 h. Here is the method: (§3) Figure 3 In vitro characterization, pharmacokinetics and toxicity profile of VNLG-152R and its two enantiomers. (A) HPLC chromatograms racemic VNLG-152R (left panel) and the resolved enantiomers VNLG-152E1 and VNLG-152E2 (right panel). The conditions of HPLC procedure are presented in Supplementary Materials. (B) Table summarizing GI50 values (µM) each cell line treated with VNLG-152R and its enantiomers. TNBC cell subtypes were treated with listed compound (0.1 nmol/L–100 µmol/L) for 7 days and the GI50 values for the anti-proliferative effects of the compounds were determined from dose response curves (by a nonlinear regression analysis using Graph Pad Prism). Data represents the results from six independent experiments for each cell line. (C) Plasma concentration versus time profile after intravenous (IV, 2 mg/kg each, top panel) or oral (PO, 20 mg/kg each, bottom panel) of VNLG-152R (red), VNLG-152E1 (purple) and VNLG-152E2 (blue) to female CD1 mice. Values represent the mean plasma concentrations from three mice per time point. (D) Table of the pharmacokinetic parameters of various compounds after IV and PO dosing. AUC = area under the curve, T1/2 = elimination half-life, Cmax = maximum plasma concentration, F (%) = oral bioavailability. (E) Effects of VNLG-152R, VNLG-152E1 and VNLG-152E2 on body weight and clinical observations at chronic dose termination of study. Three different doses, i.e., 10, 25, and 50 mg/kg/day (formulated in 40% β-cyclodextrin in saline) of each compound were administered daily by oral gavage for 14 days. Each group consisted of three mice. Loss in body weight, a clinical sign of toxicity was observed during the 14 days of dosing and the maximum tolerated dose (MTD) was estimated following established procedures. Changes in body weight were scored on a scale of 0–4 as follows as described under methods. […]
For orientation: Tetrazolium assays rely on reduction of a dye to a coloured formazan, in cell work by metabolically active cells.

The subject of the next data set is MDA-MB-231 (MSL). The data set is described as follows: MTT cell growth assay, 7 days. The conditions noted are these: Homo sapiens, MDA-MB-231, 168 h. Format: cell-based. The procedure: as §3
A further data set relates to MDA-MB-453 (LAR). The data set is described as follows: MTT cell growth assay, 7 days. Format: cell-based. The settings on record: Homo sapiens, MDA-MB-453, 168 h. The procedure:
as §3

Another data set deals with MDA-MB-468 (BL1). The data set can be described thus: MTT cell growth assay, 7 days. Format: cell-based. The settings on record: Homo sapiens, MDA-MB-468, 168 h. The procedure: as §3
The subject of data set [2] is panel of 6 human TNBC cell lines. The data set can be described thus: MTT cell growth assay, summary over the panel. The settings on record: Homo sapiens, 168 h, 7 days. Format: cell-based. Here is the method: as §3
Another data set has as its system Br-001 xenograft tumors. The data set can be described thus: Patient-derived TNBC xenograft (PDX), PO, racemate vs E1. Format: in vivo, NSG mice. The settings on record: 20 mg/kg PO. Here is the method:
The second PDX tumor model experiment was conducted to assess the efficacy of VNLG-152R versus VNLG-152E1 following PO administration. When the tumor volumes had reached about 100 mm^3, the mice were randomly divided into three groups of five mice each. The control group received vehicle (PO) and the other two groups received VNLG-152R (20 mg/kg, PO, once daily), and VNLG-152E1 (20 mg/kg, PO, once daily) five days/week. These treatments continued for 15 days and the tumors were measured and processed as described above.

The test system of data set [3] is MDA-MB-231 cells. The data set is described as follows: Real time cell invasion assay (xCELLigence). The settings on record: 2.5, 5 and 10 μM, 24 h pre-treatment. Format: cell-based, human. The procedure: Real-time measurement of cell invasion was performed using the xCELLigence RTCA DP device (ACEA Biosciences, San Diego, CA, USA). MDA-MB-231 cells were treated with VNLG-152 (2.5, 5, and 10 μM) for 24 h, cells being treated with VNLG-152 when they were plated. Subsequently, cells were seeded (75,000/well) onto 16-well microelectronic censored, two chamber Matrigel-coated trans-well plates (CIM-plates) containing the respective drug in serum-free condition. Medium containing 10% serum (chemo-attractant) was added to the bottom wells. Invasion of cells was measured from the interaction of cells with the electrodes on the bottom surface of top chamber and represented as a change in cell index (CI), an arbitrary unit derived from the relative change in electrical impedance across microelectronic sensor arrays. The electrical impedance was captured every 3 min for an experimental duration of 24 h. The rate of invasion is expressed as the CI or the change in electrical impedance at each timepoint. Values are expressed as the ±SEM of the duplicate wells from three independent experiments.

Like-named read-outs stand apart in the source and are kept apart here.

A word on the Kd: it is the free concentration of one partner at which half of the binding sites on the other are occupied at equilibrium, for simple one-to-one binding. Broadly, the GI50 is the concentration that inhibits growth by half. Usually TGI stands for how far tumour growth fell short of that in controls.

T1 sequence (Q9BUB5 whole entry): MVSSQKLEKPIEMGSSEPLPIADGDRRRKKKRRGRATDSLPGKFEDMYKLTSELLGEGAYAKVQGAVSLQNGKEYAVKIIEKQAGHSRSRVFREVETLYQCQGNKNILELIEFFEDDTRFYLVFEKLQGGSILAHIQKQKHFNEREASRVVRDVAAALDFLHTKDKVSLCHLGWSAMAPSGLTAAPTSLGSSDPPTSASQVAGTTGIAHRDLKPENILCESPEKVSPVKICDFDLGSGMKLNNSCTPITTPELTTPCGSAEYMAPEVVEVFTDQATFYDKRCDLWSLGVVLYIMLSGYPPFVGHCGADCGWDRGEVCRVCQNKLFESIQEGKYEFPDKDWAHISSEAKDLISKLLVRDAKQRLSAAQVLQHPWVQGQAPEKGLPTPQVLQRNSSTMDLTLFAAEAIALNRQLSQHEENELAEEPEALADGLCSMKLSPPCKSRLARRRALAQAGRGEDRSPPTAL

As to `CC1=C(/C=C/C(C)=C/C=C/C(C)=C/C(=O)Nc2ccc(F)cc2)C(C)(C)CCC1n1ccnc1` (racemic) [VNLG-152R, 4-(±)-(1H-imidazol-1-yl)-N-(4-fluorophenyl)-(E)-retinamide], the Kd on Mnk1 was 6460 nM. For the same compound, the GI50 in the data set with MDA-MB-231 cells [1] was 890 nM; in the data set with MDA-MB-231 cells [1] (Homo sapiens, MDA-MB-231, 144 h), 891 nM; with MDA-MB-468 cells it was 500 nM; with MDA-MB-468 cells (Homo sapiens, MDA-MB-468, 144 h), 501 nM; with HCC-1806 (BL2), 810 ± 40 nM; with MDA-MB-231 (MSL), 620 ± 30 nM. Also, the GI50 in the data set on MDA-MB-453 (LAR) is 740 ± 30 nM; in the data set on MDA-MB-468 (BL1), 890 ± 60 nM; in data set [2] (mean over 6 TNBC cell lines, read-out: average GI50), 970 nM; in [2] (range over 6 TNBC cell lines, read-out: range of GI50), 620 to 1860 nM. Also, the results for the “fold difference of GI50 (eFT508 vs VNLG-152R)” value with MDA-MB-231 cells [1] and with MDA-MB-468 cells were 8 fold and 105 fold, respectively. Moreover, in the data set with Br-001 xenograft tumors, the “changes in body weights” value is listed as “No changes in body weights were observed”. This compound also showed a TGI in the data set with Br-001 xenograft tumors (5 days per week, 15 days) of 82%. The “invasive ability (cell index)” value in the data set with MDA-MB-231 cells [3] is “significantly lower”.

Values taken from PMC6468747 (Cancers, 2019).
